Consider 12 compounds from ChEMBL document CHEMBL1201862, “PubChem BioAssay data set” (2004).

SMILES strings stand for the structures.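 Assay format: 96-well plates, 48-hour exposure. GI50 is the concentration that inhibits growth by half.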 Active and inactive are the calls of the source. No stated cut-off is given here; in the data, active = GI50 up to about 1.1 µM and inactive = higher.

Test systems include A549; CCRF-CEM; EKVX; HOP-62; LOX IMVI; M14; OVCAR-4; SF-268; SF-295; SN12C; SNB-75; SR; TK-10; UO-31; MCF7; NCI/ADR-RES; Hs-578T; MDA-MB-231; MDA-MB-435.
Assay in all cases: NCI anticancer screen, dose series, 48 h

For `O=C(N/C(=C/c1cccc([N+](=O)[O-])c1)c1nc2cc(Cl)ccc2[nH]1)c1ccccc1`, the GI50 is 14.2 µM (inactive) with A549; 1.07 µM (active) with CCRF-CEM; 3.14 µM (inactive) in the assay with EKVX; 17.7 µM (inactive) with HOP-62; 4.53 µM (inactive) in the assay with LOX IMVI; 20.7 µM (inactive) in the assay on M14. The GI50 in the assay with OVCAR-4 was 17.4 µM (inactive); in the assay with SF-268, 11.7 µM (inactive); in the assay on SF-295, 36.9 µM (inactive); in the assay with SN12C, 14.3 µM (inactive); with SNB-75, 19.2 µM (inactive); in the assay with SR, 3.61 µM (inactive). For the same compound, the GI50 in the assay with TK-10 is 3.67 µM (inactive); in the assay on UO-31, 2.18 µM (inactive).

As to `C=C1CC2CC[C@@]34C[C@@H]5O[C@@H]6C(O[C@H]7CC[C@H](CC(=O)OC8[C@@H](C)C9OC%10C[C@]%11(C[C@@H]%12O[C@@]%13(C[C@@H](C)[C@@H]%12O%11)C[C@H](C)[C@@H]%11OC%12CC(C(O)CO)OC%12C[C@@H]%11O%13)OC%10CC9O[C@H]8C[C@H]8O[C@@H](CC[C@@H]1O2)C[C@@H](C)C8=C)O[C@@H]7[C@@H]6O3)C5O4` (some centres not stated), the GI50 was 0.00168 µM (active) in the assay on A549; 0.000977 µM (active) in the assay on CCRF-CEM; 0.00405 µM (active) with EKVX; 0.00141 µM (active) with HOP-62; 0.000469 µM (active) in the assay on LOX IMVI; 0.00108 µM (active) in the assay on M14. The GI50 is 0.000148 µM (active) in the assay with MCF7; 0.00471 µM (active) in the assay on NCI/ADR-RES; 0.00471 µM (active) in the assay with OVCAR-4; 0.00229 µM (active) in the assay with SF-268; 0.000453 µM (active) with SF-295; 0.00313 µM (active) with SN12C. The GI50 is 0.000434 µM (active) with SNB-75, 0.000718 µM (active) in the assay on SR, 0.00863 µM (active) with TK-10 and 0.00673 µM (active) in the assay on UO-31.

In the case of `CCCCCCN(CCCCCC)C1=CC(=O)C(=O)c2ccccc21`, the GI50 was 17.1 µM (inactive) with A549; 14.9 µM (inactive) in the assay on CCRF-CEM; 14.6 µM (inactive) in the assay with EKVX; 18.7 µM (inactive) with HOP-62; 8.49 µM (inactive) with LOX IMVI; 18.3 µM (inactive) in the assay with M14. Besides, the GI50 with OVCAR-4 is 15.4 µM (inactive); in the assay on SF-268, 18.7 µM (inactive); with SF-295, 15.7 µM (inactive); with SN12C it was 16.4 µM (inactive); in the assay on SNB-75, 16.8 µM (inactive); in the assay with SR, 15.8 µM (inactive). Also, the GI50 with TK-10 was 21.7 µM (inactive); with UO-31 it was 13.4 µM (inactive).

`Nc1nc2c(ncn2CC2CCC(CO)C2)c(=O)[nH]1` (configuration not stated): the GI50 with A549, in the assay on CCRF-CEM, with EKVX, in the assay on HOP-62, in the assay on Hs-578T and in the assay on LOX IMVI was > 100 µM (inactive) throughout. Further, the GI50 in the assay with M14, in the assay on MCF7, in the assay on MDA-MB-231, in the assay with MDA-MB-435, in the assay with NCI/ADR-RES and in the assay with OVCAR-4 was > 100 µM (inactive) each time. Also, the GI50 in the assay on SF-268, in the assay with SF-295, in the assay on SN12C, in the assay with SNB-75, with TK-10 and with UO-31 was > 100 µM (inactive) throughout.

`CCOc1ccc(Nc2nc(C)c(C(=O)/C=C/c3ccc(Cl)cc3Cl)s2)cc1`: the GI50 with A549 was 23.2 µM (inactive); with CCRF-CEM, 29.8 µM (inactive); with EKVX, 31.1 µM (inactive); with HOP-62 it was 31.3 µM (inactive); in the assay on LOX IMVI, 16.8 µM (inactive); with M14, 23.9 µM (inactive). Moreover, the GI50 in the assay with OVCAR-4 is 10.8 µM (inactive); in the assay with SF-268 it was 24.7 µM (inactive); with SF-295, 20 µM (inactive); with SN12C, 19.3 µM (inactive); with SNB-75, 18.5 µM (inactive); in the assay with SR it was 28.6 µM (inactive). The GI50 was 22.6 µM (inactive) with TK-10 and 25.2 µM (inactive) in the assay with UO-31.

Turning to `CN(C)c1cccc(-c2cc(O)c3cc4c(cc3n2)OCO4)c1`, the GI50 in the assay on A549 was 0.343 µM (active); in the assay on CCRF-CEM, 0.204 µM (active); in the assay on EKVX, 25.6 µM (inactive); with HOP-62 it was 0.274 µM (active); in the assay with LOX IMVI it was 0.192 µM (active); in the assay with M14 it was 0.139 µM (active). In addition, the GI50 in the assay with OVCAR-4 is 0.705 µM (active); with SF-268, 0.327 µM (active); in the assay with SF-295, 0.136 µM (active); in the assay on SN12C it was 0.632 µM (active); in the assay with SNB-75 it was 0.054 µM (active); with SR, 0.708 µM (active). Also, the GI50 with TK-10 is 1.83 µM (inactive); in the assay with UO-31 it was 0.667 µM (active).

`O=C(O)c1cc2c3ccccc3nc-2c[nH]1`: the GI50 with A549, with CCRF-CEM, with EKVX, in the assay on HOP-62, with LOX IMVI and with M14 was > 100 µM (inactive) each time. The GI50 with OVCAR-4, in the assay on SF-268, with SF-295, in the assay with SN12C, in the assay on SNB-75 and in the assay on SR was > 100 µM (inactive) each time. The GI50 in the assay with TK-10 and in the assay with UO-31 was > 100 µM (inactive) in each case.

On to `N#C/C(=C/c1ccsc1)C(=O)c1ccccc1`, for which the GI50 in the assay on A549, in the assay with CCRF-CEM, in the assay with EKVX, in the assay on HOP-62, in the assay on LOX IMVI and in the assay on M14 was > 100 µM (inactive) throughout. Moreover, the GI50 in the assay on OVCAR-4, in the assay on SF-268, in the assay with SF-295, with SN12C, in the assay on SNB-75 and in the assay on SR was > 100 µM (inactive) throughout. Besides, the GI50 with TK-10 and in the assay on UO-31 was > 100 µM (inactive) in each case.

`C[C@H](CO)C1=CC(C#C[Si](C)(C)C)N(C(=O)Oc2ccccc2)c2ccccc21` (some centres not stated): the GI50 with A549 was 11.6 µM (inactive); with CCRF-CEM it was 10.9 µM (inactive); with EKVX, 13.3 µM (inactive); with HOP-62, 6.05 µM (inactive); in the assay on Hs-578T it was 10.2 µM (inactive); with LOX IMVI it was 15.7 µM (inactive). Also, the GI50 in the assay with M14 was 7.69 µM (inactive); in the assay on MDA-MB-231, 10.3 µM (inactive); in the assay on MDA-MB-435, 2.26 µM (inactive); in the assay on NCI/ADR-RES, 3.18 µM (inactive); in the assay with OVCAR-4 it was 7.1 µM (inactive); with SF-268, 13.3 µM (inactive). In addition, the GI50 is 3.86 µM (inactive) with SF-295; 12 µM (inactive) in the assay on SN12C; 6.5 µM (inactive) with SNB-75; 3.4 µM (inactive) in the assay with SR; 17 µM (inactive) in the assay on TK-10; 9.27 µM (inactive) in the assay on UO-31.

As to `CC1=C(C)CC(C#N)(C#N)C(C#N)(C#N)C1`, the GI50 with A549 is > 10 µM (inactive); with CCRF-CEM it was 1.45 µM (inactive); with EKVX it was > 10 µM (inactive); in the assay with HOP-62, > 10 µM (inactive); in the assay on Hs-578T it was > 10 µM (inactive); with LOX IMVI, > 10 µM (inactive). Also, the GI50 with M14 was 2.86 µM (inactive); in the assay with MCF7, > 5.65 µM (inactive); in the assay with MDA-MB-231, > 10 µM (inactive); in the assay on NCI/ADR-RES it was > 10 µM (inactive); in the assay on OVCAR-4, > 8.04 µM (inactive); in the assay with SF-268, > 10 µM (inactive). Besides, the GI50 in the assay with SF-295 is > 10 µM (inactive); in the assay on SN12C, > 9.12 µM (inactive); in the assay with SNB-75, > 10 µM (inactive); with SR it was 0.0802 µM (active); in the assay with TK-10 it was > 5.05 µM (inactive); with UO-31, > 10 µM (inactive).

As for `CN(C)c1ccc(/C=N\N2C(=O)c3ccccc3C2=O)cc1`, the GI50 in the assay on A549, with CCRF-CEM, in the assay with EKVX, with HOP-62, with LOX IMVI and with M14 was > 100 µM (inactive) in each case. Further, the GI50 is > 100 µM (inactive) in the assay on OVCAR-4; > 100 µM (inactive) with SF-268; > 100 µM (inactive) in the assay with SF-295; > 100 µM (inactive) in the assay with SN12C; 40.9 µM (inactive) in the assay on SNB-75; > 100 µM (inactive) in the assay on SR. Further, the GI50 in the assay on TK-10 and in the assay on UO-31 was > 100 µM (inactive) each time.

Consider `COC(=O)C1=Cc2cn(S(=O)(=O)c3ccc(C)cc3)c3cccc(c23)C(C=C(C)C)N1C(C)=O` (configuration not stated), for which the GI50 in the assay on A549 was 13.6 µM (inactive); in the assay with CCRF-CEM, 7.87 µM (inactive); with EKVX it was > 100 µM (inactive); with HOP-62, > 100 µM (inactive); with LOX IMVI, 71.1 µM (inactive); with M14 it was 30.2 µM (inactive). The GI50 is 8.67 µM (inactive) in the assay on OVCAR-4; 93.5 µM (inactive) in the assay on SF-268; 6.11 µM (inactive) in the assay with SF-295; 14.1 µM (inactive) in the assay with SN12C; 98.6 µM (inactive) in the assay on SNB-75; 12.4 µM (inactive) in the assay on SR. Further, the figures for the GI50 in the assay on TK-10 and with UO-31 were 38.9 µM (inactive) and 26.1 µM (inactive), respectively.
